Reference: the NIST ThermoML archive (doi:10.1021/je500450w)
Numbers after ± are expanded uncertainties.

Conditions: 101 kPa, Liquid mixture 1

Row | SMILES | interfacial tension (293.2 K, Drop weight) [mN/m] | interfacial tension (298.2 K, Drop weight) [mN/m] | interfacial tension (303.2 K, Drop weight) [mN/m] | interfacial tension (308.2 K, Drop weight) [mN/m] | interfacial tension (313.2 K, Drop weight) [mN/m] | interfacial tension (318.2 K, Drop weight) [mN/m] | interfacial tension (323.2 K, Drop weight) [mN/m] | interfacial tension (328.2 K, Drop weight) [mN/m] | interfacial tension (333.2 K, Drop weight) [mN/m] | interfacial tension (343.2 K, Drop weight) [mN/m] | interfacial tension (338.2 K, Drop weight) [mN/m] | interfacial tension (293.2 K) [mN/m] | interfacial tension (298.2 K) [mN/m] | interfacial tension (303.2 K) [mN/m] | interfacial tension (313.2 K) [mN/m] | interfacial tension (323.2 K) [mN/m] | interfacial tension (333.2 K) [mN/m] | interfacial tension (343.2 K) [mN/m]
1 | c1ccccc1 [benzene] + O | 34.82 ± 0.33 | 34.06 ± 0.33 | 33.64 ± 0.32 | 32.87 ± 0.32 | 32.1 ± 0.31 | 31.62 ± 0.31 | 30.95 ± 0.3 | 30.92 ± 0.3 | 30.52 ± 0.3 | – | – | – | – | – | – | – | – | –
2 | CCCCCCCO [heptan-1-ol] + O | 6.37 ± 0.12 | 6.44 ± 0.12 | 6.52 ± 0.12 | – | 6.6 ± 0.12 | – | 6.62 ± 0.12 | – | 6.58 ± 0.12 | 6.46 ± 0.12 | – | – | – | – | – | – | – | –
3 | CCCCCCC [heptane] + O | 51.3 ± 0.46 | 50.87 ± 0.46 | 50.35 ± 0.45 | 49.84 ± 0.45 | 49.6 ± 0.45 | 49 ± 0.44 | 48.54 ± 0.44 | 48.1 ± 0.44 | 47.73 ± 0.43 | 46.7 ± 0.42 | 47.28 ± 0.43 | – | – | – | – | – | – | –
4 | CCCCCCO [hexan-1-ol] + O | 7.37 ± 0.12 | 7.49 ± 0.13 | 7.6 ± 0.13 | – | 7.7 ± 0.13 | – | 7.86 ± 0.13 | – | 7.9 ± 0.13 | 7.87 ± 0.13 | – | – | – | – | – | – | – | –
5 | CCCCCC [hexane] + O | 50.81 ± 0.46 | 50.49 ± 0.45 | 50.11 ± 0.45 | 49.68 ± 0.45 | 49.28 ± 0.44 | 48.84 ± 0.44 | 48.46 ± 0.44 | 47.94 ± 0.43 | 46.92 ± 0.43 | – | – | – | – | – | – | – | – | –
6 | CCCCCCCCCO [nonan-1-ol] + O | – | – | – | – | – | – | – | – | – | – | – | 8.18 ± 0.25 | 8.48 ± 0.26 | 9 ± 0.26 | 9.15 ± 0.27 | 9.86 ± 0.28 | 9.67 ± 0.27 | 9.72 ± 0.27
7 | CCCCCCCCC [nonane] + O | 51.95 ± 0.46 | 51.54 ± 0.46 | 51.11 ± 0.46 | 50.68 ± 0.46 | 50.23 ± 0.45 | 49.63 ± 0.45 | 49.09 ± 0.44 | 48.46 ± 0.44 | 48.03 ± 0.43 | 46.96 ± 0.43 | 47.61 ± 0.43 | – | – | – | – | – | – | –
8 | CCCCCCCCO [octan-1-ol] + O | 8.02 ± 0.13 | 8.19 ± 0.13 | 8.42 ± 0.13 | – | 8.62 ± 0.13 | – | 8.83 ± 0.13 | – | 9.02 ± 0.13 | 9.02 ± 0.13 | – | – | – | – | – | – | – | –
9 | CCCCCCCC [octane] + O | 51.67 ± 0.46 | 51.2 ± 0.46 | 50.78 ± 0.46 | 50.28 ± 0.45 | 49.9 ± 0.45 | 49.31 ± 0.44 | 48.86 ± 0.44 | 48.34 ± 0.44 | 47.81 ± 0.43 | 46.82 ± 0.43 | 47.33 ± 0.43 | – | – | – | – | – | – | –
